According to PubChem BioAssay AID2124 (Sanford-Burnham Center for Chemical Genomics, 2009):
Results filed as inconclusive are left out. Active and inactive are the calls of the source. No rule for the calls is given here; tested in MIN6 cells.

Test: cell-permeable autofluorescent compounds in GFP channel, dose response, artefact control, imaging, high-content imaging (AID 2124);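 also: cells exposed to compound for 48 hours before fixing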
Conditions: cells, GFP-channel autofluorescence, high-content imaging, at 10 µM; for z-score: stronger effect = higher value

Row | SMILES | z-score | cell count [cells]
1 | CCOC(=O)c1cnn(-c2cc(C)nc3c(-c4ccccc4)cnn23)c1N | -0.39 (inactive) | 3280
2 | COc1cc(OC)c(OC)cc1/C=C1\Oc2cc(OS(C)(=O)=O)ccc2C1=O | -0.24 (inactive) | 3060
3 | CCN(CC)c1ccc(C(=O)N/N=C/c2ccc(N3CCOCC3)cc2)cc1 | -0.37 (inactive) | 3040
4 | Cc1ccc(S(=O)(=O)N2CCCC2C(=O)N(C)Cc2cccs2)cc1 (configuration not stated) | -0.39 (inactive) | 3120
5 | CCN1C(=O)/C(=C/C=C2\N(CC)c3cc(S(=O)(=O)N(C)C)ccc3N2c2ccccc2)SC1=S | 0.11 | 2840
6 | O=C1S/C(=C\c2ccc(N3CCOCC3)o2)C(=O)N1Cc1ccc(F)cc1 | 1.17 | 665
7 | COC(=O)c1cnn2c(C(F)(F)F)cc(-c3ccc(F)cc3)nc12 | -0.33 (inactive) | 2980
8 | CC(C)NC(=O)N1CCN(c2ccncc2S(=O)(=O)N2CCOCC2)CC1 | -0.39 (inactive) | 2900
9 | CCOc1ccc(NC2=NCC(=O)N2Cc2cccs2)cc1 | -0.38 (inactive) | 3020
10 | CN(C)C(=O)C1C2NC(=S)N(c3cccc(Cl)c3)C1(C)Oc1ccc(Cl)cc12 (configuration not stated) | -0.39 (inactive) | 3180
11 | Cc1cc(S(=O)(=O)NC2CCCCC2)c(C)s1 | -0.33 (inactive) | 3420
12 | O=C(NC1=NCCS1)C1Cc2ccccc2CN1C(=O)c1ccccc1 (configuration not stated) | -0.34 (inactive) | 2680
13 | COc1ccc(C2C(C(=O)c3ccccc3)=C(C)Nc3nc4ccccc4n32)c(OC)c1 (configuration not stated) | -0.33 (inactive) | 3000
14 | CCC(C(=O)OCC(=O)Nc1cccc(S(=O)(=O)NC2=NCCCCC2)c1)c1ccccc1 (configuration not stated) | -0.33 (inactive) | 3080
15 | CC(=O)Nc1sc(/C(C#N)=C/c2ccc(Cl)c(Cl)c2)nc1-c1ccc(C)cc1 | 1.08 | 2880
16 | CCCCCn1nc(-c2ccccc2)c2nc3ccccc3nc21 | 1.27 | 3200
17 | c1ccc2c(N3CCNCC3)nsc2c1 | -0.39 (inactive) | 2010
18 | CCN(CC)c1ccc(/C=C(/C#N)c2nc3ccc(C)cc3[nH]2)c(OC(C)C)c1 | 2.57 | 1480
19 | c1ccc(-c2csc(-n3cnnn3)n2)cc1 | -0.38 (inactive) | 3240

Row | SMILES | z-score | cell count [cells]
20 | O=C1C=C(Nc2ccc(O)cc2)CC(c2ccco2)C1 (configuration not stated) | -0.39 (inactive) | 3020
21 | O=[N+]([O-])c1ccc(C2=NN(c3ccccc3)C(c3ccco3)C2)cc1 (configuration not stated) | 0.17 | 3180
22 | Oc1c(C=NCc2ccc(F)cc2)[nH]c2ccc(Br)c(Cl)c12 | -0.31 (inactive) | 3310
23 | COc1cc2nc(/C=C/c3ccc(N(C)C)cc3)sc2cc1SC | 0.29 | 2900
24 | Cc1ccc(/C=[N+](\[O-])c2ccc(N(C)C)cc2)c2nsnc12 | -0.38 (inactive) | 1880
25 | CCN(CC)c1ccc2cc(-c3nnc(-c4ccccc4)o3)c(=O)oc2c1 | 1.33 | 3220
26 | CN(C)c1ccc(/C=C2\SC(=S)N(Nc3ncc(C(F)(F)F)cc3Cl)C2=O)cc1 | 0.57 | 2530
27 | COc1ccc(-n2c(Cc3cccn3C)nnc2SCC(=O)Nc2cccc(C)c2C)cc1 | -0.33 (inactive) | 3130
28 | C/C(=N\S(=O)(=O)c1ccc(C)cc1)N1CCN(S(=O)(=O)c2ccccc2)C1 | -0.38 (inactive) | 3140
29 | C(=C/c1nccc2c1[nH]c1ccccc12)/c1ccc2c(c1)OCO2 | 0.26 | 1910
30 | N#C/C(=C\C1=C(N2CCOCC2)C(=C\c2ccc(Cl)cc2)/CC1)C(=O)Nc1ccccc1F | -0.24 (inactive) | 3010
31 | Cc1[nH]c2ccccc2c1/C=N/Nc1ccc([N+](=O)[O-])cc1 | 0.2 | 1600
32 | CC(C)N1CCc2c(sc(NC(=O)c3cc4cc([N+](=O)[O-])ccc4s3)c2C(N)=O)C1 | -0.23 (inactive) | 177
33 | CCCc1n[nH]c2c1C(=O)C(C(=O)OC)C(C)(C)C2 (configuration not stated) | -0.39 (inactive) | 3280
34 | COC(=O)[C@@H](NC(=O)Nc1cccc(OC)c1)C(C)C | -0.39 (inactive) | 3030
35 | O=C1CCCC(O)=C1C=NCCc1ccccc1 | -0.38 (inactive) | 3080
36 | CC1=CN2C(=N)/C(=C/c3ccc([N+](=O)[O-])o3)C(=O)N=C2S1 | 0.75 | 348
37 | Cc1cccc2sc(NC(=O)C3CCCN(S(=O)(=O)c4cccc5nonc45)C3)nc12 (configuration not stated) | -0.28 (inactive) | 3130
38 | CCn1c(Cn2nnc(-c3ccccc3)n2)nnc1SCC(=O)Nc1ccc(C(C)=O)cc1 | -0.33 (inactive) | 3180

Row | SMILES | z-score | cell count [cells]
39 | CN(c1cccc(Cl)c1)S(=O)(=O)c1cccc(C(=O)NC2=NCCS2)c1 | -0.33 (inactive) | 3260
40 | CCN(CC)C(=O)c1sc2nc(-c3cccs3)cc(-c3cccs3)c2c1N | -0.2 (inactive) | 3420
41 | CS(=O)(=O)ON=C1CCN(S(=O)(=O)c2ccccc2)CC1 | -0.33 (inactive) | 3400
42 | CCOC(=O)c1nn(-c2ccc(Cl)cc2Cl)c(=N)c(C#N)c1C | 0.25 | 2790
43 | CC(C)N1CCc2c(sc(NC(=O)c3ccc(S(=O)(=O)N4CCc5ccccc54)cc3)c2C(N)=O)C1 | 0.77 | 1390
44 | CCS(=O)(=O)N1Cc2ccccc2CC1C(=O)OCC(=O)Nc1ccc(C)cc1 (configuration not stated) | -0.33 (inactive) | 3150
45 | COc1cc2c(cc1OC)-c1nncn1C(C)(C)C2 | -0.32 (inactive) | 3220
46 | Cc1ccc2[nH]c(-c3ccccc3)c(CN(C)C)c(=O)c2c1 | -0.33 (inactive) | 3240
47 | O=C(NC1(C(F)(F)F)NC(=O)N(c2ccc(F)c(Cl)c2)C1=O)c1ccncc1 (configuration not stated) | -0.39 (inactive) | 3240
48 | COC(=O)c1[nH]c2cccc(Cl)c2c1NC(=O)CN(C)C1CCCCC1 | -0.33 (inactive) | 3280
49 | CCOC(=O)N1CCN(C(=O)NC2CCCCC2)CC1 | -0.38 (inactive) | 3150
50 | CC1CC(=O)C2=C(C1)OC(N)=C(C#N)C2c1coc2ccccc2c1=O (configuration not stated) | -0.38 (inactive) | 3180
51 | COc1ccc(C2=NC(=O)/C(=C\c3cc(OC)c(OC)c(OC)c3)O2)cc1 | -0.38 (inactive) | 2830
52 | CCOC(=O)CC1C(=O)NCCN1S(=O)(=O)c1ccc(Cl)cc1Cl (configuration not stated) | -0.33 (inactive) | 3500
53 | Cc1ccc(C(=O)NN2C(=O)/C(=C/c3cn(C)c4ccccc34)SC2=S)cc1 | -0.27 (inactive) | 3060
54 | COc1cccc2c(=O)n(CC(=O)Nc3cccc(F)c3)ccc12 | -0.33 (inactive) | 3120
55 | O=C(/C=C/c1ccc2ccccc2n1)c1cc(Br)ccc1O | -0.24 (inactive) | 2620
56 | CC(=O)NC(c1ccc(Cl)cc1)c1c(O)ccc2ccc(O)cc12 (configuration not stated) | -0.38 (inactive) | 3140
